# Biological target: T1, recombinant Plk1 protein (Homo sapiens, UniProt P53350)
# T1 construct: histidine tag (N); made in house; host or cells: SF9 insect cells
# Experiment: Plk1 kinase activity inhibition assay (33P-ATP, alpha casein substrate, flash plates)
# Format: biochemical
# Details: enzymatic assay, 100 nM Li-ATP, 80 minutes at 30° C.
# In short: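 IC50 derived from radioactive flash-plate counts of 33P-labelled alpha casein after 80 min at 30 °C. Reaction: 100 nM 33P-containing ATP, 50–100 ng His-tagged Plk1 (SF9-expressed), 500 ng casein per well, HEPES pH 7.5 buffer with MgCl2/MnCl2.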
# T1 sequence (P53350 whole entry): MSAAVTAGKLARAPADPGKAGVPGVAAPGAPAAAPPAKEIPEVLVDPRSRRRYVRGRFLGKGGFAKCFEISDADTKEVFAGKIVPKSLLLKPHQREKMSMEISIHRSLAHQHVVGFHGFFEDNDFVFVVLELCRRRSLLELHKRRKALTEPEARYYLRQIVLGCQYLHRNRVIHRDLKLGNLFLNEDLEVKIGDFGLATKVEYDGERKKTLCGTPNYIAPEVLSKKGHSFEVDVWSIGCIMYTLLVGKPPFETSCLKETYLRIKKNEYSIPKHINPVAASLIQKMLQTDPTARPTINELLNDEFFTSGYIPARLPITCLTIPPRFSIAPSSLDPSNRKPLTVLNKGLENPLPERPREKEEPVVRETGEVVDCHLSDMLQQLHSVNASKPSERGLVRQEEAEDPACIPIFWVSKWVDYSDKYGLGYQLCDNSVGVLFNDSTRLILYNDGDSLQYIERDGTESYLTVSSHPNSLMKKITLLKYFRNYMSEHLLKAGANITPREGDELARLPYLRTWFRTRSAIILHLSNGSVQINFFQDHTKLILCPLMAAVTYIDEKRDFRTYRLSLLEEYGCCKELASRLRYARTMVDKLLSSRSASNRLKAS
row,IC50,Compound
1,10 to 100 nM,"NC(=O)c1sc(-n2cnc3cnc(Cl)cc32)cc1OCc1ccccc1C(F)(F)F [Example 1, 5-(6-Chloro-1H-imidazo[4,5-c]pyridin-1-yl)-3-{[2-(trifluoromethyl)benzyl]oxy}thiophene-2-carboxamide]"
2,10 to 100 nM,"NC(=O)c1sc(-n2cnc3cnccc32)cc1OCc1ccccc1C(F)(F)F [Example 2, 5-(1H-Imidazo[4,5-c]pyridin-1-yl)-3-{[2-(trifluoromethyl)benzyl]oxy}thio-phene-2-carboxamide]"
3,100 to 1000 nM,"C[C@@H](Oc1cc(-n2cnc3cnc(CN4CCN(CC5CCN(C)CC5)CC4)cc32)sc1C(N)=O)c1ccccc1C(F)(F)F [Example 85, 5-[6-({4-[(1-methylpiperidin-4-yl)methyl]piperazin-1-yl}methyl)-1H-imidazo[4,5-c]pyridin-1-yl]-3-{(1R)-1-[2-(trifluoromethyl)phenyl]ethoxy}thiophene-2-carboxamide]"
4,< 10 nM,"C[C@@H](Oc1cc(-n2cnc3cnc(CN4CC(O)C4)cc32)sc1C(N)=O)c1ccccc1C(F)(F)F [Example 96, 5-{6-[(3-hydroxyazetidin-1-yl)methyl]-1H-imidazo[4,5-c]pyridin-1-yl}-3-{(1R)-1-[2-(trifluoromethyl)phenyl]ethoxy}thiophene-2-carboxamide]"
5,10 to 100 nM,"C[C@@H](Oc1cc(-n2cnc3cnc(CN4CCN(CC(=O)N(C)C)CC4)cc32)sc1C(N)=O)c1ccccc1C(F)(F)F [Example 87, 5-[6-({4-[2-(dimethylamino)-2-oxoethyl]piperazin-1-yl}methyl)-1H-imidazo[4,5-c]pyridin-1-yl]-3-{(1R)-1-[2-(trifluoromethyl)phenyl]ethoxy}thiophene-2-carboxamide]"
6,< 10 nM,CC(Oc1cc(-n2cnc3cnc(CO)cc32)sc1C(N)=O)c1ccccc1F (centres unmarked) [Example 57]
7,1000 to 10000 nM,"CC(Oc1cc(-n2cnc3cc(CN4CCS(=O)(=O)CC4)ncc32)sc1C(N)=O)c1ccccc1F (centres unmarked) [Example 161, 5-{6-[(1,1-dioxidothiomorpholin-4-yl)methyl]-3H-imidazo[4,5-c]pyridin-3-yl}-3-[-1-(2-fluorophenyl)ethoxy]thiophene-2-carboxamide]"
8,10 to 100 nM,"C[C@@H](Oc1cc(-n2cnc3cc(CNS(C)(=O)=O)ncc32)sc1C(N)=O)c1ccccc1C(F)(F)F [Example 90, 5-(6-{[(methylsulfonyl)amino]methyl}-3H-imidazo[4,5-c]pyridin-3-yl)-3-{(1R)-1-[2-(trifluoromethyl)phenyl]ethoxy}thiophene-2-carboxamide]"
9,100 to 1000 nM,"COCCN1CCN(Cc2cc3ncn(-c4cc(OC(C)c5ccccc5F)c(C(N)=O)s4)c3cn2)CC1 (centres unmarked) [Example 157, 3-[-1-(2-fluorophenyl)ethoxy]-5-(6-{[4-(2-methoxyethyl)piperazin-1-yl]methyl}-3H-imidazo[4,5-c]pyridin-3-yl)thiophene-2-carboxamide]"
10,< 10 nM,"CC(Oc1cc(-n2cnc3cnc(CN4CCN(C(=O)N(C)C)CC4)cc32)sc1C(N)=O)c1ccccc1OC(F)F (centres unmarked) [Example 134, 4-{[1-(5-carbamoyl-4-{1-[2-(difluoromethoxy)phenyl]ethoxy}-2-thienyl)-1H-imidazo[4,5-c]pyridin-6-yl]methyl}-N,N-dimethylpiperazine-1-carboxamide]"
11,100 to 1000 nM,"CCNCc1cc2ncn(-c3cc(O[C@H](C)c4ccccc4C(F)(F)F)c(C(N)=O)s3)c2cn1 [Example 117, 5-{6-[(ethylamino)methyl]-3H-imidazo[4,5-c]pyridin-3-yl}-3-{(1R)-1-[2-(trifluoromethyl)phenyl]ethoxy}thiophene-2-carboxamide]"
12,10 to 100 nM,"NC(=O)c1sc(-n2cnc3ccncc32)cc1OCc1ccccc1OC(F)F [Example 38, 3-{[2-(difluoromethoxy)benzyl]oxy}-5-(3H-imidazo[4,5-c]pyridin-3-yl)thiophene-2-carboxamide]"
13,100 to 1000 nM,"NC(=O)c1sc(-n2cnc3ncccc32)cc1OCc1ccccc1C(F)(F)F [Example 20, 5-(1H-Imidazo[4,5-b]pyridin-1-yl)-3-{[2-(trifluoromethyl)benzyl]oxy}thio-phene-2-carboxamide]"
14,10 to 100 nM,"CCC(Oc1cc(-n2cnc3cnc(CN4CCN(C(=O)N(C)C)CC4)cc32)sc1C(N)=O)c1ccccc1Cl (centres unmarked) [Example 137, 4-{[1-(5-carbamoyl-4-{[1-(2-chlorophenyl)propyl]oxy}-2-thienyl)-1H-imidazo[4,5-c]pyridin-6-yl]methyl}-N,N-dimethylpiperazine-1-carboxamide]"
15,10 to 100 nM,"C[C@@H](Oc1cc(-n2cnc3cnc(CNC4CCC4)cc32)sc1C(N)=O)c1ccccc1C(F)(F)F [Example 105, 5-{6-[(cyclobutylamino)methyl]-1H-imidazo[4,5-c]pyridin-1-yl}-3-{(1R)-1-[2-(trifluoromethyl)phenyl]ethoxy}thiophene-2-carboxamide]"
16,10 to 100 nM,"C[C@@H](Oc1cc(-n2cnc3cnc(CN4CCN(CCN5CCOCC5)CC4)cc32)sc1C(N)=O)c1ccccc1C(F)(F)F [Example 80, 5-(6-{[4-(2-morpholin-4-ylethyl)piperazin-1-yl]methyl}-1H-imidazo[4,5-c]pyridin-1-yl)-3-{(1R)-1-[2-(trifluoromethyl)phenyl]ethoxy}thiophene-2-carboxamide]"
17,< 10 nM,"C[C@@H](Oc1cc(-n2cnc3cnc(CN4CCC(N(C)C)CC4)cc32)sc1C(N)=O)c1ccccc1C(F)(F)F [Example 65, 5-(6-{[4-(dimethylamino)piperidin-1-yl]methyl}-1H-imidazo[4,5-c]pyridin-1-yl)-3-{(1R)-1-[2-(trifluoromethyl)phenyl]ethoxy}thiophene-2-carboxamide]"
18,10 to 100 nM,"CC(Oc1cc(-n2cnc3ccncc32)sc1C(N)=O)c1ccccc1C(F)(F)F (centres unmarked) [Example 13, 5-(3H-Imidazo[4,5-c]pyridin-3-yl)-3-{1-[2-(trifluoromethyl)phenyl]ethoxy}thiophene-2-carboxamide]"
19,< 10 nM,"C[C@@H](Oc1cc(-n2cnc3cnc(CN4CCN(C)CC4)cc32)sc1C(N)=O)c1ccccc1C(F)(F)F [Example 24, 5-{6-[(4-methylpiperazin-1-yl)methyl]-1H-imidazo[4,5-c]pyridin-1-yl}-3-{(1R)-1-[2-(trifluoromethyl)phenyl]ethoxy}thiophene-2-carboxamide]"
20,< 10 nM,"Cc1ccccc1C(C)Oc1cc(-n2cnc3cnc(CO)cc32)sc1C(N)=O (centres unmarked) [Example 110, 5-[6-(hydroxymethyl)-1H-imidazo[4,5-c]pyridin-1-yl]-3-[1-(2-methylphenyl)ethoxy]thiophene-2-carboxamide]"
21,1000 to 10000 nM,"CC(Oc1cc(-n2cnc3cc(CN4CCN(C(=O)c5ccccc5)CC4)ncc32)sc1C(N)=O)c1ccccc1F (centres unmarked) [Example 160, 5-{6-[(4-benzoylpiperazin-1-yl)methyl]3H-imidazo[4,5-c]pyridin-3-yl}-3-[-1-(2-fluorophenyl)ethoxy]thiophene-2-carboxamide]"
22,100 to 1000 nM,"CCC(Oc1cc(-n2cnc3cnc(CN4CCN(CCN(C)C)CC4)cc32)sc1C(N)=O)c1ccccc1Cl (centres unmarked) [Example 151, 3-{[1-(2-chlorophenyl)propyl]oxy}-5-[6-({4-[2-(dimethylamino)ethyl]piperazin-1-yl}methyl)-1H-imidazo[4,5-c]pyridin-1-yl]thiophene-2-carboxamide]"
23,10 to 100 nM,"NC(=O)c1sc(-n2cnc3ccncc32)cc1OCc1c(Cl)cccc1Cl [Example 43, 3-[(2,6-dichlorobenzyl)oxy]-5-(3H-imidazo[4,5-c]pyridin-3-yl)thiophene-2-carboxamide]"
24,1000 to 10000 nM,"CC(Oc1cc(-n2cnc3cc(CNC4CCN(C)CC4)ncc32)sc1C(N)=O)c1ccccc1F (centres unmarked) [Example 156, 3-[-1-(2-fluorophenyl)ethoxy]-5-(6-{[(1-methylpiperidin-4-yl)amino]methyl}-3H-imidazo[4,5-c]pyridin-3-yl)thiophene-2-carboxamide]"
25,< 10 nM,"C[C@@H](Oc1cc(-n2cnc3cnc(CN4CCN(C)CC4)cc32)sc1C(N)=O)c1ccccc1F [Example 101, 3-[(1R)-1-(2-fluorophenyl)ethoxy]-5-{6-[(4-methylpiperazin-1-yl)methyl]-1H-imidazo[4,5-c]pyridin-1-yl}thiophene-2-carboxamide]"
26,< 10 nM,"CN1CCN(Cc2cc3c(cn2)ncn3-c2cc(OC(c3ccccc3Cl)C(F)(F)F)c(C(N)=O)s2)CC1 (centres unmarked) [Example 76, 3-[1-(2-chlorophenyl)-2,2,2-trifluoroethoxy]-5-{6-[(4-methylpiperazin-1-yl)methyl]-1H-imidazo[4,5-c]pyridin-1-yl}thiophene-2-carboxamide]"
27,1000 to 10000 nM,"CN1CCN(Cc2cc3ncn(-c4cc(OCc5ccccc5C(F)(F)F)c(C(N)=O)s4)c3cn2)CC1 [Example 37, 5-{6-[(4-methylpiperazin-1-yl)methyl]-3H-imidazo[4,5-c]pyridin-3-yl}-3-{[2-(trifluoromethyl)benzyl]oxy}thiophene-2-carboxamide]"
28,10 to 100 nM,"NC(=O)c1sc(-n2cnc3cnccc32)cc1OCc1ccc(F)cc1C(F)(F)F [Example 34, 3-{[4-fluoro-2-(trifluoromethyl)benzyl]oxy}-5-(1H-imidazo[4,5-c]pyridin-1-yl)thiophene-2-carboxamide]"
29,< 10 nM,"C[C@@H](Oc1cc(-n2cnc3cnc(CN4CCCN(C)CC4)cc32)sc1C(N)=O)c1ccccc1Cl [Example 129, 3-[(1R)-1-(2-chlorophenyl)ethoxy]-5-{6-[(4-methyl-1,4-diazepan-1-yl)methyl]-1H-imidazo[4,5-c]pyridin-1-yl}thiophene-2-carboxamide]"
30,< 10 nM,"C[C@@H](Oc1cc(-n2cnc3cnc(CO)cc32)sc1C(N)=O)c1ccccc1F [Example 55, 3-[(1R)-1-(2-fluorophenyl)ethoxy]-5-[6-(hydroxymethyl)-1H-imidazo[4,5-c]pyridin-1-yl]thiophene-2-carboxamide]"

# Tested on: not given
# Experiment: not given
# Details: not given
row,melting point,Compound
1,248 to 249 °C (dec.),"NC(=O)c1sc(-n2cnc3cnc(Cl)cc32)cc1OCc1ccccc1C(F)(F)F [Example 1, 5-(6-Chloro-1H-imidazo[4,5-c]pyridin-1-yl)-3-{[2-(trifluoromethyl)benzyl]oxy}thiophene-2-carboxamide]"
2,226 to 227 °C (dec.),"NC(=O)c1sc(-n2cnc3cnccc32)cc1OCc1ccccc1C(F)(F)F [Example 2, 5-(1H-Imidazo[4,5-c]pyridin-1-yl)-3-{[2-(trifluoromethyl)benzyl]oxy}thio-phene-2-carboxamide]"

# — patent publication US8273890B2 (4SC AG, priority 2007, dated 2012)
